Data from patent US20160038468A1 (priority 2013, published 2016).
Values after ≈ are worked out from the molar mass of the structure shown. Where two headings read alike, the source gives them in different places.

Tests used:
Assay type in all cases: cell-based
Prevotella bivia = assay: Agar dilution MIC (CLSI), Prevotella bivia vaginal isolates; settings: for MIC: read-out: Minimal Inhibitory Concentration (MIC)
Peptoniphilus harei = assay: Agar dilution MIC (CLSI), Peptoniphilus harei vaginal isolates; settings: for Number of strains with indicated MIC: 23 samples; for MIC: read-out: Minimal Inhibitory Concentration (MIC)
Peptoniphilus lacrimalis = assay: Agar dilution MIC (CLSI), Peptoniphilus lacrimalis vaginal isolates; settings: for Number of strains with indicated MIC: 20 samples; for MIC: read-out: Minimal Inhibitory Concentration (MIC)
[1] = Peptoniphilus harei, # tested 23
[2] = Peptoniphilus lacrimalis, # tested 20

CO[C@H]1/C=C/O[C@@]2(C)Oc3c(C)c(O)c4c(O)c(c5c(nc6cc(C)ccn65)c4c3C2=O)NC(=O)/C(C)=C\C=C\[C@H](C)[C@H](O)[C@@H](C)[C@@H](O)[C@@H](C)[C@H](OC(C)=O)[C@@H]1C [Rifaximin]
MIC (Prevotella bivia; Prevotella bivia, isolate 601355 B): 1 µg/mL (≈ 1.27 µM) | MIC (Prevotella bivia; Prevotella bivia, isolate 601367 M): 0.5 µg/mL (≈ 0.636 µM) | MIC (Prevotella bivia; Prevotella bivia, isolate 601374 A1): 0.25 µg/mL (≈ 0.318 µM) | MIC (Prevotella bivia; Prevotella bivia, isolate 601378 B): 0.25 µg/mL (≈ 0.318 µM) | MIC (Prevotella bivia; Prevotella bivia, isolate 601379 19): 0.25 µg/mL (≈ 0.318 µM) | MIC (Prevotella bivia; Prevotella bivia, isolate 601388 T): 0.25 µg/mL (≈ 0.318 µM) | MIC (Prevotella bivia; Prevotella bivia, isolate 601389 10): 0.25 µg/mL (≈ 0.318 µM) | MIC (Prevotella bivia; Prevotella bivia, isolate 601389 J): 0.25 µg/mL (≈ 0.318 µM) | MIC (Prevotella bivia; Prevotella bivia, isolate 601392 14): 0.125 µg/mL (≈ 0.159 µM) | MIC (Prevotella bivia; Prevotella bivia, isolate 601409 V): 0.25 µg/mL (≈ 0.318 µM) | MIC (Prevotella bivia; Prevotella bivia, isolate 601410 12): 0.25 µg/mL (≈ 0.318 µM) | MIC (Prevotella bivia; Prevotella bivia, isolate 601429 1): 0.25 µg/mL (≈ 0.318 µM) | MIC (Prevotella bivia; Prevotella bivia, isolate 601433 19): 0.25 µg/mL (≈ 0.318 µM) | MIC (Prevotella bivia; Prevotella bivia, isolate 601449 E): 0.5 µg/mL (≈ 0.636 µM) | MIC (Prevotella bivia; Prevotella bivia, isolate 601453 A): 0.25 µg/mL (≈ 0.318 µM) | MIC (Prevotella bivia; Prevotella bivia, isolate 601455 D1): 0.25 µg/mL (≈ 0.318 µM) | MIC (Prevotella bivia; Prevotella bivia, isolate 601458 16): 0.25 µg/mL (≈ 0.318 µM) | MIC50 (Prevotella bivia; Prevotella bivia, # tested 34): 0.25 µg/mL (≈ 0.318 µM) | MIC90 (Prevotella bivia; Prevotella bivia, # tested 34): 0.5 µg/mL (≈ 0.636 µM) | Susceptible (Prevotella bivia; number (%) of isolates, # tested 34): 34 (100) μg/ml | MIC Range (Peptoniphilus harei; # tested 23): 3.75 to 30 ng/mL | Number of strains with indicated MIC (Peptoniphilus harei; MIC 0.00375 μg/ml): 1 | Number of strains with indicated MIC (Peptoniphilus harei; MIC 0.0075 μg/ml): 15 | Number of strains with indicated MIC (Peptoniphilus harei; MIC 0.015 μg/ml): 6 | Number of strains with indicated MIC (Peptoniphilus harei; MIC 0.03 μg/ml): 1 | MIC (Peptoniphilus harei; Peptoniphilus harei, isolate 426868V D): 7.5 ng/mL (≈ 0.00954 µM) | MIC (Peptoniphilus harei; Peptoniphilus harei, isolate 601098V Q): 7.5 ng/mL (≈ 0.00954 µM) | MIC (Peptoniphilus harei; Peptoniphilus harei, isolate 601203V 8): 7.5 ng/mL (≈ 0.00954 µM) | MIC (Peptoniphilus harei; Peptoniphilus harei, isolate 601212V 15): 7.5 ng/mL (≈ 0.00954 µM) | MIC (Peptoniphilus harei; Peptoniphilus harei, isolate 601233V R): 30 ng/mL (≈ 0.0382 µM) | MIC (Peptoniphilus harei; Peptoniphilus harei, isolate 601248V 23): 7.5 ng/mL (≈ 0.00954 µM) | MIC (Peptoniphilus harei; Peptoniphilus harei, isolate 601259V 11): 15 ng/mL (≈ 0.0191 µM) | MIC (Peptoniphilus harei; Peptoniphilus harei, isolate 601289V C): 7.5 ng/mL (≈ 0.00954 µM) | MIC (Peptoniphilus harei; Peptoniphilus harei, isolate 601293V 21): 7.5 ng/mL (≈ 0.00954 µM) | MIC (Peptoniphilus harei; Peptoniphilus harei, isolate 601302V F1): 15 ng/mL (≈ 0.0191 µM) | MIC (Peptoniphilus harei; Peptoniphilus harei, isolate 601311V R): 3.75 ng/mL (≈ 0.00477 µM) | MIC (Peptoniphilus harei; Peptoniphilus harei, isolate 601326V F): 15 ng/mL (≈ 0.0191 µM) | MIC (Peptoniphilus harei; Peptoniphilus harei, isolate 601342V F): 7.5 ng/mL (≈ 0.00954 µM) | MIC (Peptoniphilus harei; Peptoniphilus harei, isolate 601355V D): 15 ng/mL (≈ 0.0191 µM) | MIC (Peptoniphilus harei; Peptoniphilus harei, isolate 601365V 14): 7.5 ng/mL (≈ 0.00954 µM) | MIC (Peptoniphilus harei; Peptoniphilus harei, isolate 601374V F): 15 ng/mL (≈ 0.0191 µM) | MIC (Peptoniphilus harei; Peptoniphilus harei, isolate 601388V Q): 7.5 ng/mL (≈ 0.00954 µM) | MIC (Peptoniphilus harei; Peptoniphilus harei, isolate 601399V 16): 7.5 ng/mL (≈ 0.00954 µM) | MIC (Peptoniphilus harei; Peptoniphilus harei, isolate 601409V L): 7.5 ng/mL (≈ 0.00954 µM) | MIC (Peptoniphilus harei; Peptoniphilus harei, isolate 601413V 16): 7.5 ng/mL (≈ 0.00954 µM) | MIC (Peptoniphilus harei; Peptoniphilus harei, isolate 601426V D): 7.5 ng/mL (≈ 0.00954 µM) | MIC (Peptoniphilus harei; Peptoniphilus harei, isolate 601430V 22): 15 ng/mL (≈ 0.0191 µM) | MIC (Peptoniphilus harei; Peptoniphilus harei, isolate 601539V 25B): 7.5 ng/mL (≈ 0.00954 µM) | MIC50 (Peptoniphilus harei; [1]): 7.5 ng/mL (≈ 0.00954 µM) | MIC90 (Peptoniphilus harei; [1]): 0.015 µg/mL (≈ 0.0191 µM) | MIC Range (Peptoniphilus lacrimalis; # tested 20): 3.75 to 30 ng/mL | Number of strains with indicated MIC (Peptoniphilus lacrimalis; MIC 0.00375 μg/ml): 2 | Number of strains with indicated MIC (Peptoniphilus lacrimalis; MIC 0.0075 μg/ml): 5 | Number of strains with indicated MIC (Peptoniphilus lacrimalis; MIC 0.015 μg/ml): 12 | Number of strains with indicated MIC (Peptoniphilus lacrimalis; MIC 0.03 μg/ml): 1 | MIC (Peptoniphilus lacrimalis; Peptoniphilus lacrimalis, isolate 601028V 27A): 0.015 µg/mL (≈ 0.0191 µM) | MIC (Peptoniphilus lacrimalis; Peptoniphilus lacrimalis, isolate 601060V 32A): 0.015 µg/mL (≈ 0.0191 µM) | MIC (Peptoniphilus lacrimalis; Peptoniphilus lacrimalis, isolate 601078V O): 0.015 µg/mL (≈ 0.0191 µM) | MIC (Peptoniphilus lacrimalis; Peptoniphilus lacrimalis, isolate 601084V c): 0.015 µg/mL (≈ 0.0191 µM) | MIC (Peptoniphilus lacrimalis; Peptoniphilus lacrimalis, isolate 601105V 13): 0.015 µg/mL (≈ 0.0191 µM) | MIC (Peptoniphilus lacrimalis; Peptoniphilus lacrimalis, isolate 601139V 17): 0.015 µg/mL (≈ 0.0191 µM) | MIC (Peptoniphilus lacrimalis; Peptoniphilus lacrimalis, isolate 601213V 17): 0.015 µg/mL (≈ 0.0191 µM) | MIC (Peptoniphilus lacrimalis; Peptoniphilus lacrimalis, isolate 601255V 12): 0.015 µg/mL (≈ 0.0191 µM) | MIC (Peptoniphilus lacrimalis; Peptoniphilus lacrimalis, isolate 601261V O): 0.015 µg/mL (≈ 0.0191 µM) | MIC (Peptoniphilus lacrimalis; Peptoniphilus lacrimalis, isolate 601293V 15): 0.03 µg/mL (≈ 0.0382 µM) | MIC (Peptoniphilus lacrimalis; Peptoniphilus lacrimalis, isolate 601296V N): 0.015 µg/mL (≈ 0.0191 µM) | MIC (Peptoniphilus lacrimalis; Peptoniphilus lacrimalis, isolate 601305V K-1): 0.0075 µg/mL (≈ 0.00954 µM) | MIC (Peptoniphilus lacrimalis; Peptoniphilus lacrimalis, isolate 601318V E): 0.0075 µg/mL (≈ 0.00954 µM) | MIC (Peptoniphilus lacrimalis; Peptoniphilus lacrimalis, isolate 601330V H): 0.015 µg/mL (≈ 0.0191 µM) | MIC (Peptoniphilus lacrimalis; Peptoniphilus lacrimalis, isolate 601336V 47): 0.015 µg/mL (≈ 0.0191 µM) | MIC (Peptoniphilus lacrimalis; Peptoniphilus lacrimalis, isolate 601365V 13): 0.0075 µg/mL (≈ 0.00954 µM) | MIC (Peptoniphilus lacrimalis; Peptoniphilus lacrimalis, isolate 601368V 39): 0.0075 µg/mL (≈ 0.00954 µM) | MIC (Peptoniphilus lacrimalis; Peptoniphilus lacrimalis, isolate 601375V E): 0.0075 µg/mL (≈ 0.00954 µM) | MIC (Peptoniphilus lacrimalis; Peptoniphilus lacrimalis, isolate 601388V B): 0.00375 µg/mL (≈ 0.00477 µM) | MIC (Peptoniphilus lacrimalis; Peptoniphilus lacrimalis, isolate 601401V I): 0.00375 µg/mL (≈ 0.00477 µM) | MIC50 (Peptoniphilus lacrimalis; [2]): 0.015 µg/mL (≈ 0.0191 µM) | MIC90 (Peptoniphilus lacrimalis; [2]): 0.015 µg/mL (≈ 0.0191 µM)
